Reference: PubChem BioAssay AID1963969 (Molecular Pharmacology Branch, DTP, NCI, 2024)

Tested on: 817829-284-R-J1-PDC multi-cell spheroid viability
Test: Anticancer human tumor 817829-284-R-J1-PDC patient-derived colon adenocarcinoma cell line growth inhibition [PI3K]
Settings: for IC50: curve of first compound; for viability, T/C: stronger effect = lower value
In short: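 Complex 3D spheroids (cancer cells + endothelial HUVEC + mesenchymal stem cells); drug pairs of targeted agent x inavolisib/alpelisib/duvelisib/copanlisib; half-log series from ~Cmax, max 10 microM if Cmax unknown; endpoint viability.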

[1] = second compound 0.00316 µM, first compound 0.0316 µM
[2] = second compound 0.00316 µM, first compound 0.1 µM
[3] = second compound 0.00316 µM, first compound 0.316 µM
[4] = second compound 0.00316 µM, first compound 1 µM
[5] = second compound 0.00316 µM, first compound 3.16 µM
[6] = second compound 0.00316 µM, first compound 10 µM
[7] = second compound 0.01 µM, first compound 0.0316 µM
[8] = second compound 0.01 µM, first compound 0.1 µM
[9] = second compound 0.01 µM, first compound 0.316 µM
[10] = second compound 0.01 µM, first compound 1 µM
[11] = second compound 0.01 µM, first compound 3.16 µM
[12] = second compound 0.01 µM, first compound 10 µM
[13] = second compound 0.0316 µM, first compound 0.0316 µM
[14] = second compound 0.0316 µM, first compound 0.1 µM
[15] = second compound 0.0316 µM, first compound 0.316 µM
[16] = second compound 0.0316 µM, first compound 1 µM
[17] = second compound 0.0316 µM, first compound 3.16 µM
[18] = second compound 0.0316 µM, first compound 10 µM
[19] = second compound 0.1 µM, first compound 0.0316 µM
[20] = second compound 0.1 µM, first compound 0.1 µM
[21] = second compound 0.1 µM, first compound 0.316 µM
[22] = second compound 0.1 µM, first compound 1 µM
[23] = second compound 0.1 µM, first compound 3.16 µM
[24] = second compound 0.1 µM, first compound 10 µM
[25] = second compound 0.316 µM, first compound 0.0316 µM
[26] = second compound 0.316 µM, first compound 0.1 µM
[27] = second compound 0.316 µM, first compound 0.316 µM
[28] = second compound 0.316 µM, first compound 1 µM
[29] = second compound 0.316 µM, first compound 3.16 µM
[30] = second compound 0.316 µM, first compound 10 µM
[31] = second compound 1 µM, first compound 0.0316 µM
[32] = second compound 1 µM, first compound 0.1 µM
[33] = second compound 1 µM, first compound 0.316 µM
[34] = second compound 1 µM, first compound 1 µM
[35] = second compound 1 µM, first compound 3.16 µM
[36] = second compound 1 µM, first compound 10 µM
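Also: spheroids exposed to agents for seven days before readout.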
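For viability, T/C in this document: percent of vehicle DMSO control viability which is 100%.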

## CC1(C)CCC(CN2CCN(c3ccc(C(=O)NS(=O)(=O)c4ccc(NCC5CCOCC5)c([N+](=O)[O-])c4)c(Oc4cnc5[nH]ccc5c4)c3)CC2)=C(c2ccc(Cl)cc2)C1 + COc1c(OCCCN2CCOCC2)ccc2c3n(c(=NC(=O)c4cnc(N)nc4)nc12)CCN3
Second compound 0.00316 µM
  IC50: > 10 µM
Second compound 0.01 µM
  IC50: > 10 µM
Second compound 0.0316 µM
  IC50: > 10 µM
Second compound 0.1 µM
  IC50: < 0.0316 µM
Second compound 0.316 µM
  IC50: < 0.0316 µM
Second compound 1 µM
  IC50: < 0.0316 µM
[1]
  viability, T/C: 59.2%
[2]
  viability, T/C: 90.8%
[3]
  viability, T/C: 91.6%
[4]
  viability, T/C: 81.9%
[5]
  viability, T/C: 93.3%
[6]
  viability, T/C: 113%
[7]
  viability, T/C: 80.5%
[8]
  viability, T/C: 74.1%
[9]
  viability, T/C: 75.3%
[10]
  viability, T/C: 64.3%
[11]
  viability, T/C: 66.2%
[12]
  viability, T/C: 69.2%
[13]
  viability, T/C: 52.7%
[14]
  viability, T/C: 63.2%
[15]
  viability, T/C: 72.7%
[16]
  viability, T/C: 60.1%
[17]
  viability, T/C: 63%
[18]
  viability, T/C: 44.5%
[19]
  viability, T/C: 31.8%
[20]
  viability, T/C: 31.6%
[21]
  viability, T/C: 49.6%
[22]
  viability, T/C: 33.3%
[23]
  viability, T/C: 45.3%
[24]
  viability, T/C: 40.1%
[25]
  viability, T/C: 18.5%
[26]
  viability, T/C: 20.7%
[27]
  viability, T/C: 23.2%
[28]
  viability, T/C: 22.8%
[29]
  viability, T/C: 24.7%
[30]
  viability, T/C: 19.7%
[31]
  viability, T/C: 12.9%
[32]
  viability, T/C: 11.1%
[33]
  viability, T/C: 13.6%
[34]
  viability, T/C: 14.4%
[35]
  viability, T/C: 13.4%
[36]
  viability, T/C: 11.7%

## CCCS(=O)(=O)Nc1ccc(F)c(C(=O)c2c[nH]c3ncc(-c4ccc(Cl)cc4)cc23)c1F + COc1c(OCCCN2CCOCC2)ccc2c3n(c(=NC(=O)c4cnc(N)nc4)nc12)CCN3
Second compound 0.00316 µM
  IC50: 1.9 µM
Second compound 0.01 µM
  IC50: 4.24 µM
Second compound 0.0316 µM
  IC50: 2.3 µM
Second compound 0.1 µM
  IC50: 0.0316 µM
Second compound 0.316 µM
  IC50: < 0.0316 µM
Second compound 1 µM
  IC50: < 0.0316 µM
[1]
  viability, T/C: 117%
[2]
  viability, T/C: 87%
[3]
  viability, T/C: 71.5%
[4]
  viability, T/C: 66.4%
[5]
  viability, T/C: 59.5%
[6]
  viability, T/C: 10.7%
[7]
  viability, T/C: 104%
[8]
  viability, T/C: 53.6%
[9]
  viability, T/C: 66.5%
[10]
  viability, T/C: 70.9%
[11]
  viability, T/C: 64.1%
[12]
  viability, T/C: 8.97%
[13]
  viability, T/C: 45.4%
[14]
  viability, T/C: 70%
[15]
  viability, T/C: 43.8%
[16]
  viability, T/C: 64.1%
[17]
  viability, T/C: 47.9%
[18]
  viability, T/C: 10.2%
[19]
  viability, T/C: 34.4%
[20]
  viability, T/C: 39.3%
[21]
  viability, T/C: 71.2%
[22]
  viability, T/C: 26.8%
[23]
  viability, T/C: 28.2%
[24]
  viability, T/C: 14.4%
[25]
  viability, T/C: 21.7%
[26]
  viability, T/C: 19.6%
[27]
  viability, T/C: 21.3%
[28]
  viability, T/C: 16%
[29]
  viability, T/C: 16.1%
[30]
  viability, T/C: 9.88%
[31]
  viability, T/C: 10%
[32]
  viability, T/C: 14.3%
[33]
  viability, T/C: 8.54%
[34]
  viability, T/C: 6.57%
[35]
  viability, T/C: 9.78%
[36]
  viability, T/C: 4.54%

## CNC(=O)c1ccc(N2C(=S)N(c3ccc(C#N)c(C(F)(F)F)c3)C(=O)C2(C)C)cc1F + COc1c(OCCCN2CCOCC2)ccc2c3n(c(=NC(=O)c4cnc(N)nc4)nc12)CCN3
Second compound 0.00316 µM
  IC50: > 10 µM
Second compound 0.01 µM
  IC50: > 10 µM
Second compound 0.0316 µM
  IC50: 3.04 µM
Second compound 0.1 µM
  IC50: < 0.0316 µM
Second compound 0.316 µM
  IC50: < 0.0316 µM
Second compound 1 µM
  IC50: < 0.0316 µM
[1]
  viability, T/C: 72.7%
[2]
  viability, T/C: 107%
[3]
  viability, T/C: 118%
[4]
  viability, T/C: 110%
[5]
  viability, T/C: 70.9%
[6]
  viability, T/C: 55.9%
[7]
  viability, T/C: 102%
[8]
  viability, T/C: 107%
[9]
  viability, T/C: 117%
[10]
  viability, T/C: 58.2%
[11]
  viability, T/C: 81.3%
[12]
  viability, T/C: 55%
[13]
  viability, T/C: 52.3%
[14]
  viability, T/C: 61.2%
[15]
  viability, T/C: 73.6%
[16]
  viability, T/C: 105%
[17]
  viability, T/C: 49.2%
[18]
  viability, T/C: 27.3%
[19]
  viability, T/C: 35.4%
[20]
  viability, T/C: 38.6%
[21]
  viability, T/C: 31.2%
[22]
  viability, T/C: 36.3%
[23]
  viability, T/C: 31.5%
[24]
  viability, T/C: 21.7%
[25]
  viability, T/C: 19.9%
[26]
  viability, T/C: 23%
[27]
  viability, T/C: 23.2%
[28]
  viability, T/C: 18.5%
[29]
  viability, T/C: 19.1%
[30]
  viability, T/C: 17.7%
[31]
  viability, T/C: 11.2%
[32]
  viability, T/C: 12.2%
[33]
  viability, T/C: 9.45%
[34]
  viability, T/C: 13.1%
[35]
  viability, T/C: 11.1%
[36]
  viability, T/C: 9.44%
